Assay results published in patent publication US6737383B1, “Herbicidal oxadiazolidines” (priority 1999, dated 2004).

Legend:
[1] = system: cocklebur; test: Test B pre/postemergence cocklebur; assay type: in vivo, Xanthium strumarium
Method in brief: (§1)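 Test chemicals in a non-phytotoxic solvent mixture with surfactant were sprayed preemergence onto planted seeds and postemergence onto plants 2 to 18 cm tall (1- to 4-leaf stage). After twelve to sixteen days in a greenhouse, injury was visually rated against untreated controls from 0 (no effect) to 10 (complete control).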

[2] = system: bedstraw; test: Test B pre/postemergence bedstraw; assay type: in vivo, Galium aparine; conditions: Preemergence; for Bedstraw plant response rating: scale 0 to 10, 0 is no effect, 10 is complete control
Method in brief: as §1

[3] = system: wheat; test: Test B pre/postemergence wheat; assay type: in vivo, Triticum aestivum
Method in brief: as §1

[4] = system: giant foxtail; test: Test B pre/postemergence giant foxtail; assay type: in vivo, Setaria faberii
Method in brief: as §1

[5] = system: purple nutsedge; test: Test B pre/postemergence purple nutsedge; assay type: in vivo, Cyperus rotundus
Method in brief: as §1

[6] = system: soybean; test: Test B pre/postemergence soybean; assay type: in vivo, Glycine max
Method in brief: as §1

[7] = system: sugar beet; test: Test B pre/postemergence sugar beet; assay type: in vivo, Beta vulgaris
Method in brief: as §1

[8] = system: crabgrass; test: Test B pre/postemergence crabgrass; assay type: in vivo, Digitaria sanguinalis
Method in brief: as §1

[9] = system: rape; test: Test B pre/postemergence rape; assay type: in vivo, Brassica napus
Method in brief: as §1

[10] = system: morningglory; test: Test B pre/postemergence morningglory; assay type: in vivo, Ipomoea hederacea
Method in brief: as §1

[11] = system: corn; test: Test B pre/postemergence corn; assay type: in vivo, Zea mays
Method in brief: as §1

[12] = system: pigweed; test: Test B pre/postemergence pigweed; assay type: in vivo, Amaranthus retroflexus
Method in brief: as §1

[13] = system: surinam grass; test: Test B pre/postemergence surinam grass; assay type: in vivo, Brachiaria decumbens
Method in brief: as §1

[14] = system: wild oat; test: Test B pre/postemergence wild oat; assay type: in vivo, Avena fatua
Method in brief: as §1

[15] = system: velvetleaf; test: Test B pre/postemergence velvetleaf; assay type: in vivo, Abutilon theophrasti
Method in brief: as §1

[16] = system: blackgrass; test: Test B pre/postemergence blackgrass; assay type: in vivo, Alopecurus myosuroides
Method in brief: as §1

[17] = Postemergence, Rate 62 g/ha, scale of 0 to 10, 0 is no effect, 10 is complete control
[18] = Postemergence, Rate 125 g/ha, scale 0 to 10, 0 is no effect, 10 is complete control
[19] = Postemergence, Rate 250 g/ha, scale 0 to 10
[20] = Postemergence, Rate 500 g/ha, scale 0 to 10, 0 is no effect, 10 is complete control
[21] = Preemergence, Rate 62 g/ha, scale of 0 to 10 where 0 is no effect and 10 is complete control
[22] = Preemergence, Rate 125 g/ha, scale 0 to 10, 0 is no effect, 10 is complete control
[23] = Preemergence, Rate 500 g/ha, scale of 0 to 10 where 0 is no effect and 10 is complete control
[24] = Preemergence, Rate 250 g/ha, scale 0 to 10, 0 is no effect, 10 is complete control

Cc1noc(C)c1Cn1c(=O)on(C(=O)N(c2ccc(F)cc2F)C(C)C)c1=O [Compound 510]
Cocklebur plant response rating [1, 17]: 3 | Cocklebur plant response rating [1, 18]: 3 | Cocklebur plant response rating [1, 19]: 4 | Plant response rating, Cocklebur [1, 20]: 4 | Plant response rating, Cocklebur [1, 21]: 0 | Cocklebur plant response rating [1, 22]: 0 | Cocklebur plant response rating [1, 23]: 0 | Plant response rating, Bedstraw ([2]; Rate 62 g/ha, scale of 0 to 10 where 0 is no effect and 10 is complete control): 0 | Bedstraw plant response rating ([2]; Rate 125 g/ha): 0 | Bedstraw plant response rating ([2]; Rate 250 g/ha): 0 | Bedstraw plant response rating ([2]; Rate 500 g/ha): 4 | Wheat plant response rating [3, 17]: 0 | Wheat plant response rating [3, 18]: 0 | Plant response rating, Wheat [3, 20]: 3 | Plant response rating, Wheat [3, 21]: 0 | Wheat plant response rating [3, 22]: 0 | Wheat plant response rating [3, 23]: 0 | Giant foxtail plant response rating [4, 17]: 4 | Giant foxtail plant response rating [4, 18]: 6 | Plant response rating, Giant foxtail [4, 20]: 9 | Plant response rating, Giant foxtail [4, 21]: 9 | Giant foxtail plant response rating [4, 22]: 9 | Giant foxtail plant response rating [4, 23]: 10 | Nutsedge plant response rating [5, 18]: 0 | Plant response rating, Nutsedge [5, 20]: 0 | Plant response rating, Nutsedge [5, 21]: 0 | Nutsedge plant response rating [5, 22]: 0 | Nutsedge plant response rating [5, 23]: 0 | Soybean plant response rating [6, 17]: 4 | Soybean plant response rating [6, 18]: 7 | Plant response rating, Soybean [6, 20]: 8 | Plant response rating, Soybean [6, 21]: 0 | Soybean plant response rating [6, 22]: 0 | Soybean plant response rating [6, 23]: 0 | Sugarbeets plant response rating [7, 17]: 2 | Sugarbeets plant response rating [7, 18]: 4 | Plant response rating, Sugarbeets [7, 20]: 8 | Plant response rating, Sugarbeets [7, 21]: 0 | Sugarbeets plant response rating [7, 22]: 0 | Sugarbeets plant response rating [7, 23]: 7 | Crabgrass plant response rating [8, 17]: 3 | Crabgrass plant response rating [8, 18]: 8 | Crabgrass plant response rating [8, 19]: 8 | Plant response rating, Crabgrass [8, 20]: 9 | Plant response rating, Crabgrass [8, 21]: 5 | Crabgrass plant response rating [8, 22]: 9 | Crabgrass plant response rating [8, 23]: 9 | Rape plant response rating [9, 17]: 1 | Rape plant response rating [9, 18]: 4 | Plant response rating, Rape [9, 20]: 9 | Plant response rating, Rape [9, 21]: 2 | Rape plant response rating [9, 22]: 5 | Rape plant response rating [9, 23]: 9 | Morningglory plant response rating [10, 17]: 4 | Morningglory plant response rating [10, 18]: 5 | Plant response rating, Morningglory [10, 20]: 6 | Plant response rating, Morningglory [10, 21]: 0 | Morningglory plant response rating [10, 22]: 0 | Morningglory plant response rating [10, 23]: 5 | Corn plant response rating [11, 17]: 0 | Corn plant response rating [11, 18]: 0 | Corn plant response rating [11, 19]: 0 | Plant response rating, Corn [11, 20]: 0 | Plant response rating, Corn [11, 21]: 0 | Corn plant response rating [11, 22]: 0 | Corn plant response rating [11, 23]: 5 | Redroot pigweed plant response rating [12, 17]: 7 | Redroot pigweed plant response rating [12, 18]: 7 | Plant response rating, Redroot pigweed [12, 21]: 7 | Redroot pigweed plant response rating [12, 22]: 9 | Redroot pigweed plant response rating [12, 23]: 10 | B. signalgrass plant response rating [13, 17]: 2 | B. signalgrass plant response rating [13, 18]: 4 | B. signalgrass plant response rating ([13]; Postemergence, Rate 250 g/ha, scale 0 to 10, 0 no effect, 10 complete control): 4 | Plant response rating, B. signalgrass [13, 20]: 6 | Plant response rating, B. signalgrass [13, 21]: 7 | B. signalgrass plant response rating [13, 22]: 7 | B. signalgrass plant response rating [13, 24]: 8 | B. signalgrass plant response rating ([13]; Preemergence, Rate 500 g/ha, scale 0 to 10, 0 is no effect, 10 is complete control): 9 | Wild oats plant response rating [14, 17]: 0 | Wild oats plant response rating [14, 18]: 0 | Plant response rating, Wild oats [14, 20]: 5 | Plant response rating, Wild oats [14, 21]: 4 | Wild oats plant response rating [14, 22]: 6 | Wild oats plant response rating [14, 23]: 7 | Velvetleaf plant response rating [15, 17]: 4 | Velvetleaf plant response rating [15, 18]: 4 | Plant response rating, Velvetleaf [15, 20]: 7 | Plant response rating, Velvetleaf [15, 21]: 1 | Velvetleaf plant response rating [15, 22]: 2 | Velvetleaf plant response rating [15, 23]: 6 | Blackgrass plant response rating [16, 17]: 5 | Blackgrass plant response rating [16, 18]: 5 | Blackgrass plant response rating [16, 19]: 5 | Plant response rating, Blackgrass [16, 20]: 6 | Plant response rating, Blackgrass [16, 21]: 6 | Blackgrass plant response rating [16, 22]: 6 | Blackgrass plant response rating [16, 24]: 7 | Blackgrass plant response rating [16, 23]: 8
